The values below come from ChEMBL document CHEMBL2346533, “Structural effect of phenyl ring compared to thiadiazole based adamantyl-sulfonamides on carbonic anhydrase inhibition” (Bioorg Med Chem, 2013).

By Ki is commonly meant the equilibrium dissociation constant of an inhibitor or competing ligand from its target.

In one test the target is Carbonic anhydrase 1 (Homo sapiens, UniProt P00915). Briefly: Inhibition of human carbonic anhydrase-1 cytosolic isoform after 15 mins by Stopped-flow CO2 hydrase assay.
The target in a further test is Carbonic anhydrase 3 (Homo sapiens, UniProt P07451). Briefly: Inhibition of human carbonic anhydrase-3 cytosolic isoform after 15 mins by Stopped-flow CO2 hydrase assay.
The target in a further test is Carbonic anhydrase 12 (Homo sapiens, UniProt O43570). Briefly: Inhibition of tumor-associated transmembrane human carbonic anhydrase-12 after 15 mins by Stopped-flow CO2 hydrase assay.
The target in the next test is Carbonic anhydrase 9 (Homo sapiens, UniProt Q16790). In words: Inhibition of tumor-associated transmembrane human carbonic anhydrase-9 after 15 mins by Stopped-flow CO2 hydrase assay.

Carbonic anhydrase 3, sequence (P07451 whole entry, canonical isoform): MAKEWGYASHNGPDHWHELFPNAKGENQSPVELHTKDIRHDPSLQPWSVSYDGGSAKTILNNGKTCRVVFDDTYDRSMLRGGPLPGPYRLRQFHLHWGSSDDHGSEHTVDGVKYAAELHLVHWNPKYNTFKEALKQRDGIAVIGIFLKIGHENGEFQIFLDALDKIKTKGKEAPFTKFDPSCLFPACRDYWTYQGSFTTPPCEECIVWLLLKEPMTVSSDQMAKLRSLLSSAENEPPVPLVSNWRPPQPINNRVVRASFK
Carbonic anhydrase 12, sequence (O43570 whole entry): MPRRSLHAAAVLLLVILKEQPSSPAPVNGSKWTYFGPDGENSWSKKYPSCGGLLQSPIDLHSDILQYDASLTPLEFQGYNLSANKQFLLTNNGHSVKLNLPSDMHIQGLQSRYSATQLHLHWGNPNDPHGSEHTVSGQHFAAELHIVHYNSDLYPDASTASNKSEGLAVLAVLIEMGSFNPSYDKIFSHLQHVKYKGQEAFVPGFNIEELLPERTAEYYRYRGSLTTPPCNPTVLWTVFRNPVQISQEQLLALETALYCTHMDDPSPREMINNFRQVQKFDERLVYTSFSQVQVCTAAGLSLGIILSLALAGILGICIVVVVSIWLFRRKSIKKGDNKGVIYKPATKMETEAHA
Carbonic anhydrase 1, sequence (P00915 whole entry, canonical isoform): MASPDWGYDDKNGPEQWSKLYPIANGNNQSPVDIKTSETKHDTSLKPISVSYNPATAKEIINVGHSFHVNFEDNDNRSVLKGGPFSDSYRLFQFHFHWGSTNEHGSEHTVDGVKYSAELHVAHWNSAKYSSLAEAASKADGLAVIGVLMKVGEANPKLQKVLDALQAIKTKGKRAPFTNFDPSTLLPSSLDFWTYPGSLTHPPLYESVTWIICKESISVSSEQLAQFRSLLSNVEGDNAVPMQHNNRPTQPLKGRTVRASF

As to `NS(=O)(=O)c1nnc(NC(=O)C23CC4CC(CC(C4)C2)C3)s1`, the Ki at Carbonic anhydrase 1 is 0.85 µM; on Carbonic anhydrase 3 it was 1200 µM.

For the molecule `NS(=O)(=O)c1nnc(NC(=O)CC23CC4CC(CC(C4)C2)C3)s1`, the figures for the Ki on Carbonic anhydrase 1 and on Carbonic anhydrase 3 were 0.34 µM and 1400 µM, respectively.

`NS(=O)(=O)c1ccc(NC(=O)CC23CC4CC(CC(C4)C2)C3)cc1`: the values for the Ki at Carbonic anhydrase 12, at Carbonic anhydrase 3 and at Carbonic anhydrase 9 were 0.0094 µM, greater than 10000 µM and 0.0565 µM, respectively.

As for `NS(=O)(=O)c1ccc(NC(=O)C23CC4CC(CC(C4)C2)C3)cc1`, the results for the Ki at Carbonic anhydrase 12, on Carbonic anhydrase 3 and at Carbonic anhydrase 9 were 0.0071 µM, greater than 10000 µM and 0.0513 µM, respectively.
